Assay results taken from patent US20230399358A1, “IMMUNOGLOBULIN PURIFICATION PEPTIDES AND THEIR USE” (North Carolina State University, priority 2019, published 2023).

Tested on: human IgG
Assay type: binding
Conditions: peptide on Toyopearl AF-amino-650M, 30 min, room temperature
Procedure: Measurement of IgG binding by peptide-based chromatographic adsorbents: For initial studies, 35 mg of MWRGWQ (SEQ ID NO:2)-Toyopearl, RHLGWF (SEQ ID NO:3)-Toyopearl, WQRHGI (SEQ ID NO:1)-Toyopearl, GWLHQR (SEQ ID NO:4)-Toyopearl, and HWRGWV (SEQ ID NO:18)-Toyopearl (control) resins were equilibrated in PBS pH 7.4, reaching a swollen volume of 0.1 mL, and subsequently incubated with 1 mg/mL IgG in 0.205 mg/mL CHO cell culture supernatant for 30 minutes. The resins were subsequently washed several times with PBS to remove non-specifically bound proteins. Elution was performed with 100 mM glycine buffer pH 2.5. Flowthrough and elution fractions were collected and analyzed by SDS PAGE under reducing conditions. The resulting gels were stained with Coomassie staining. Further, 25 mg of the adsorbents MWRGWQ (SEQ ID NO:2)-Toyopearl, NIFRGWQ (SEQ ID NO:21)-Toyopearl, MWRAWQ (SEQ ID NO:5)-Toyopearl, MWRGFQ (SEQ ID NO:7)-Toyopearl, MWRGWN (SEQ ID NO:22)-Toyopearl, (NorL) WRGWQ (SEQ ID NO:23)-Toyopearl, MGRGWQ (SEQ ID NO:24)-Toyopearl, MWRWQ (SEQ ID NO:6)-Toyopearl, MWRGGQ (SEQ ID NO:26)-Toyopearl, GWRGWQ (SEQ ID NO:8)-Toyopearl, WQRHGI (SEQ ID NO:1)-Toyopearl, WNRHGI (SEQ ID NO:12)-Toyopearl, WQRAGI (SEQ ID NO:28)-Toyopearl, WQRHAI (SEQ ID NO:11)-Toyopearl, WQRHGL (SEQ ID NO:9)-Toyopearl, FQRHGI (SEQ ID NO:29)-Toyopearl, and WQRHGV (SEQ ID NO:10)-Toyopearl resins were equilibrated in PBS pH 7.4, reaching a swollen volume of 0.1 mL, and subsequently incubated with 1 mg/mL IgG in PBS at pH 7.4 for 30 minutes. The amount of unbound IgG in the supernatant samples was quantified by Bradford assay and utilized to determine the IgG binding % by the peptide variants.
A limited library of residue-by-residue changes confirmed the importance of each residue in peptides WQRHGI (SEQ ID NO:1) and MWRGWQ (SEQ ID NO:2) in reducing the binding energy between the peptide and the IgG target. […] This was accomplished by designing and constructing an ensemble of 20 variants of peptides WQRHGI (SEQ ID NO:1) and MWRGWQ (SEQ ID NO:2). Selected residues in positions 1-6 were mutated. The peptide variants were synthesized directly on Toyopearl AF-amino-650M resin via Fmoc/tBu chemistry. The resulting adsorbents were incubated with a solution of human IgG at 2 mg/mL at a ratio of 1 mL of resin per 3.5 mL of solution for 30 min at room temperature. The residual concentration of IgG in solution was determined by Bradford concentration assay of the supernatants and utilized to calculate the amounts of bound IgG per volume of resin; Table 7 reports the % binding, defined as mg IgG bound by variant/mg IgG bound by original sequence (either WQRHGI (SEQ ID NO:1) or MWRGWQ (SEQ ID NO:2))×100%, of each sequence variant.

WQRHGI
% Binding (mg IgG bound by variant/mg IgG bound by original sequence × 100%): 100.00%
